Measurements published in patent US20080051585A1, “Process for the preparation of indolin-2-one derivatives useful as PR modulators” (Wyeth, priority 2006, published 2008).

Cn1c(C#N)ccc1-c1ccc2c(c1F)C1(CC1)C(=O)N2 [Example 5, 5-(4′-fluoro-2′-oxospiro[cyclopropane-1,3′-indoline]-5′-yl)-1-methyl-1H-pyrrole-2-carbonitrile]
melting point: 222.5 to 223.8 °C
